Article PMC6112376, “Comprehensive Analyses and Prioritization of Tox21 10K Chemicals Affecting Mitochondrial Function by in-Depth Mechanistic Studies” (Environmental Health Perspectives, 2018)
Counter-ions that a name gives are not always drawn. Like-named read-outs stand apart in the source and are kept apart here.

Assays:
HepG2 cells [1] = conditions: cited from earlier work; for IC50: read-out: MMP assays IC50 (µM), qHTS-HepG2
HepG2 cells [2] = test: cells; conditions: Homo sapiens; for IC50: HepG2, read-out: MMP assays IC50 (µM) HepG2; for Emax: HepG2, read-out: MMP assays efficacy (%) HepG2
rat primary hepatocytes = test: MMP assay in rat primary hepatocytes; conditions: for IC50: Rattus norvegicus, Hepatocyte, read-out: MMP assays IC50 (µM) Rat Hepatocytes; for MMP assays efficacy (%) Rat Hepatocytes / MMP assays IC50 (µM) Rat Hepatocytes: mean ± SD of three experiments

| Compound | IC50 (HepG2 cells [1]) [µM] | IC50 (HepG2 cells [2]) [µM] | Emax (HepG2 cells [2]) [%] | IC50 (rat primary hepatocytes) [µM] | MMP assays efficacy (%) Rat Hepatocytes (rat primary hepatocytes) | MMP assays efficacy (%) qHTS-HepG2 (HepG2 cells [1]) [%] | MMP assays IC50 (µM) Rat Hepatocytes (rat primary hepatocytes) |
| --- | --- | --- | --- | --- | --- | --- | --- |
| Cc1nnc2n1-c1sc(CCc3ccc(CC(C)C)cc3)cc1C(c1ccccc1Cl)=NC2C (stereo not shown) [Israpafant] | 22 ± 1.49 | 27.5 | 108 | 23.5 ± 5.67 | -55±10% | – | – |
| COC(=O)C1=C(C)NC(C)=C(C(=O)OC(C)(C)CN(C)CCC(c2ccccc2)c2ccccc2)C1c1cccc([N+](=O)[O-])c1 (stereo not shown) [Lercanidipine hydrochloride] | 6.53 ± 0.53 | – | 117 | 27.5 | -77±16% | -83±7 | – |
| CN1C(C(=O)Nc2ccccn2)=C(O)c2sc(Cl)cc2S1(=O)=O [Lornoxicam] | 9.44 ± 1.09 | 6.15 | 73 | 3.3 ± 2.52 | -57±10% | -92±10 | – |
| C#C[C@]1(O)CC[C@H]2[C@@H]3CCC4=CCCC[C@@H]4[C@H]3CC[C@@]21C [Lynestrenol] | 16.6 ± 2.15 | 7.4 | 55 | – | inactive | -104±10 | inactive |
| CCCCC(CC)CN1C(=O)C2C3C=CC(C3)C2C1=O (stereo not shown) [MGK-264] | 15.4 ± 10.5 | 28.2 | 84 | 17.8 ± 25.1 | -55±25% | -65±7 | – |
| CC(C)OC(=O)C(C(=O)OC(C)C)=C1SC=CS1 [Malotilate] | 15 ± 1.99 | 39.8 | 79 | 23.9 ± 29.3 | -106±108% | -82±14 | – |
| COC(=O)C1=C(C)NC(C)=C(C(=O)OCCN2CCN(C(c3ccccc3)c3ccccc3)CC2)C1c1cccc([N+](=O)[O-])c1 (stereo not shown) [Manidipine] | 12.2 ± 6.82 | 27.5 | 98 | 20.9 ± 5.06 | -40±8% | -95±13 | – |
| CN1C(=O)/C(=N\NC(N)=S)c2ccccc21 [Methisazone] | 5.82 ± 1.38 | 12.6 | 90 | 21.5 ± 9.04 | -94±16% | -96±7 | – |
| COc1ccc(/C=C/C(=O)c2ccc(OC)cc2OC)cc1 [Metochalcone] | 18.2 ± 10.1 | 39.8 | 119 | 25.5 ± 18.2 | -82±19% | -72±12 | – |
| C[C@@H]1C[C@H]2[C@@H]3CCC4=CC(=O)C=C[C@]4(C)[C@@]3(Cl)[C@@H](O)C[C@]2(C)[C@@]1(OC(=O)c1ccco1)C(=O)CCl [Mometasone furoate] | 11.8 ± 0.8 | 8.3 | 71 | 14 ± 1.14 | -21±0% | -101±23 | – |
| CCN(CC)c1ccc(N)cc1 [N,N-Diethylbenzene-1,4-diamine] | 49.9 ± 3.51 | 7.94 | 118 | 31.6 | -105±29% | -103±16 | – |
| O=C1c2ccccc2C(=O)C1(O)O [Ninhydrin] | 32 ± 9.69 | 56.2 | 85 | – | inactive | -86±19 | inactive |
| O=[N+]([O-])c1ccc(O)c2ncccc12 [Nitroxoline] | 9.22 ± 2.41 | 19.9 | 94 | 72.3 ± 39.1 | -69±54% | -80±8 | – |
| O=C(Nc1ccc(O)cc1)c1ccccc1O [Osalmid] | 6.68 ± 0.77 | 6.31 | 101 | 30 ± 21.3 | -93±20% | -96±3 | – |
